In ChEMBL document CHEMBL5257063, “Dendrillic Acids A and B: Nitrogenous, Rearranged Spongian Nor-Diterpenes from a Dendrilla sp. Marine Sponge” (J Nat Prod, 2023):
Values after ≈ are worked out from the molar mass of the structure shown.

Legend:
Candida albicans = assay: Antifungal activity against Candida albicans ATCC 10231 measured after 48 hrs by bromocresol green reagent based assay; format: functional
Saccharomyces cerevisiae = assay: Antifungal activity against Saccharomyces cerevisiae ATCC 9763 measured after 48 hrs by bromocresol green reagent based assay; format: functional
Bacillus subtilis = assay: Antibacterial activity against Bacillus subtilis ATCC 6633 measured after 48 hrs by resazurin reagent based assay; format: functional
Staphylococcus aureus = assay: Antibacterial activity against Staphylococcus aureus ATCC 25923 measured after 48 hrs by resazurin reagent based assay; format: functional
Giardia intestinalis = assay: Antiparasitic activity against Giardia duodenalis WB-1B 713 assessed as parasite growth inhibition measured after 96 hrs under anaerobic conditions; format: functional
Tritrichomonas foetus = assay: Anti-protozoal activity against Tritrichomonas foetus KV-1 measured after 72 hrs under anaerobic conditions; format: functional
[1] = Cytotoxicity against human NFF cells incubated for 96 hrs by resazurin dye based assay; format: toxicity, cell-based; details: read-out: MIC
[2] = Cytotoxicity against mouse NS-1 cells incubated for 96 hrs by resazurin dye based assay; format: functional

MIC (Candida albicans) [µg/mL]	MIC (Saccharomyces cerevisiae) [µg/mL]	MIC (Bacillus subtilis) [µg/mL]	MIC (Staphylococcus aureus) [µg/mL]	MIC (Giardia intestinalis) [µg/mL]	MIC (Tritrichomonas foetus) [µg/mL]	Compound	MCC at 96 h [1] [µg/mL]	MIC [2] [µg/mL]
> 200	> 200	> 100	> 100	100 (≈ 268 µM)	> 100	C[C@@H]1c2c([C@@]3(C)CCCC(C)(C)C3)ccc(C(=O)O)c2C(=O)N1CC(=O)O	> 100	> 100
> 200	> 200	> 100	> 100	50 (≈ 134 µM)	> 100	C[C@H]1c2c([C@@]3(C)CCCC(C)(C)C3)ccc(C(=O)O)c2C(=O)N1CC(=O)O	> 100	> 100
		6.3 (≈ 14.2 µM)	12.5 (≈ 28.1 µM)			CN(C)[C@@H]1C(O)=C(C(N)=O)C(=O)[C@@]2(O)C(O)=C3C(=O)c4c(O)cccc4[C@@](C)(O)[C@H]3C[C@@H]12 [TETRACYCLINE]		
				0.3 (≈ 1.75 µM)	0.2 (≈ 1.17 µM)	Cc1ncc([N+](=O)[O-])n1CCO [METRONIDAZOLE]		
						CSC[S@@+]([O-])CC(CO)NC(=O)/C=C/c1c(C)[nH]c(=O)[nH]c1=O (some centres undefined) [SPARSOMYCIN]	0.6	0.6 (≈ 1.66 µM)

Compound	MIC (Candida albicans) [µg/mL]	MIC (Saccharomyces cerevisiae) [µg/mL]	MIC (Bacillus subtilis) [µg/mL]	MIC (Staphylococcus aureus) [µg/mL]	MIC (Giardia intestinalis) [µg/mL]	MIC (Tritrichomonas foetus) [µg/mL]	MCC at 96 h [1] [µg/mL]	MIC [2] [µg/mL]
CN(CC[C@H](N)CC(=O)N[C@H]1C=C[C@H](n2ccc(N)nc2=O)O[C@@H]1C(=O)O)C(=N)N.Cl	> 200	3.1						
